# In patent US4072574A, “System for in vitro assay for mutagenicity and/or carcinogenicity of chemicals or other exogenous agents” (priority 1976, dated 1978):
# Tests used:
# AMV DNA polymerase [1] = assay: Fidelity of in vitro DNA synthesis (error frequency) with AMV DNA polymerase copying synthetic polynucleotide templates; conditions: for effect on error frequency (in words): dTMP complementary, dCMP non-complementary
# From the text: (§1) In this invention, the ability of carcinogens to decrease the fidelity of in vitro DNA synthesis will be used to screen for carcinogenic or mutagenic agents. The system uses synthetic polynucleotides of defined composition which may be copied in the test tubes with procaryotic, eucaryotic or viral DNA polymerases. The use of synthetic polynucleotides of defined composition allows the measurement of the simultaneous incorporation of the correct, complementary nucleotide and an incorrect, non-complementary nucleotide. The correct nucleotide is labeled with [α-^32 P] of low specific activity and the incorrect nucleotide is labeled with [^3 H] of high specific activity. Through this double labeled reaction it is possible to determine the simultaneous incorporation of both nucleotides and thus to determine an error frequency. The error frequency may be defined as the ratio of the incorrect/correct nucleotide incorporation. Agents which increase this error frequency may be scored as positive. […] Agents which score positive would be checked using different templates to underscore the positive results. In this system different polymerases will be used as well as different templates. One would expect that most carcinogens would change the fidelity of DNA synthesis with different polymerases as well as with different templates though this need not be the case.
# (§2) Each assay will consist of a polymerase, a polynucleotide template that only contains one or two nucleotides, a complementary nucleotide and a non-complementary nucleotide as well as magnesium. Both of the nucleotides will be labeled by radioactive precursors and the ratio between the two is to be used for a measure of error frequency in the system. In instances where a template requires two complementary nucleotides, only one will be radioactively labeled.
# (§3) Reactions (total volume 0.05 ml) which measured complementary nucleotide incorporation contained 50 mM Tris-HCL (pH 8.0), 20 mM KCl, 5 mM dithiothreitol, 5 mM MgCl2, 2μg BSA, […] [α-^32 P] -dTTP (60 dpm/pmole), 1μg poly (A).oligo (dT) (1:1.5 mass ratio), and 0.45 μg of AMV DNA polymerase. For simultaneous quantitation of complementary and non-complementary nucleotide incorporation each reaction was modified to contain 26μM [α-^32 P]dTTP (12 dpm/pmole) and 23μM [^3 H]-dCTP (50,000 dpm/pmole). […] Metals were added directly to the reaction mixture as aqueous solutions of chloride salts. All reactions were incubated for 60 min. at 37° C. Incorporation of radioactive nucleotides into an acid-insoluble and alkali-resistant product was determined by using the precipitation-solubilization procedure as described by Battula and Loeb. All experiments were performed in triplicate and the averages were determined.
# (§4) In order to determine the effect of different metals on the accuracy of DNA replication, metal cations were added as chloride salts directly to the polymerase reaction. In these experiments, poly (A).oligo (dT) was the template-primer and the simultaneous incorporation of complementary nucleotide, [α-^32 P]-dTMP, and the non-complementery nucleotide, [^3 H]-dCMP, was determined.
# (§5) The effect of metal salts on the fidelity of DNA synthesis was examined by testing each of the metal salts at a minimum of seven different concentrations.
# AMV DNA polymerase [2] = assay: Metal requirements for catalysis by AMV DNA polymerase; type: biochemical, avian myeloblastosis virus; conditions: poly (A).oligo (dT); for ability to substitute for Mg^2+ as added divalent cation: absence of Mg^2+, Be^2+ up to 15 mM
# Method: All known DNA polymerases require either Mg^2+ or Mn^2+ as an added divalent cation for activity. AMV DNA polymerase used Mg^2+ as an added divalent cation and the maximum rate of polymerization with poly (A).oligo (dT) was attained at 5 mM Mg^2+. […] Thymidine monophosphate incorporation with Be^2+ was less than 0.3% of that obtained with 5 mM Mg^2+.
# [3] = known status of the compound; cited from earlier work
# [4] = Fidelity of in vitro DNA synthesis (error frequency) with AMV DNA polymerase copying synthetic polynucleotide templates; conditions: amv dna polymerase
# From the text: as §1, §2, §3, §4, §5
# [5] = 1 mM added cation + Mg^2+ 5 mM, poly (A).oligo (dT)
# [6] = 2 mM added cation + Mg^2+ 5 mM, poly (A).oligo (dT)
# [7] = 2 mM added cation + Mg^2+ 5 mM, poly (A).oligo (dT), dCMP/dTMP
# [8] = 5 mM added cation + Mg^2+ 5 mM, poly (A).oligo (dT)
# [9] = Table 1, template poly (A).oligo (dT), classes 1-3 not defined
# [10] = Table 1, template poly [d(A-T)], classes 1-3 not defined
# [11] = Mg^2+ 2 mM alone, poly (A).oligo (dT)
# [12] = Mg^2+ 5 mM alone, poly (A).oligo (dT)
# [13] = Mg^2+ 8 mM alone, poly (A).oligo (dT)
# [14] = Mg^2+ 15 mM alone, poly (A).oligo (dT)
# [15] = 6 mM added cation + Mg^2+ 5 mM, poly (A).oligo (dT)
# [16] = 6 mM added cation + Mg^2+ 5 mM, poly (A).oligo (dT), dCMP/dTMP
# [17] = 10 mM added cation + Mg^2+ 5 mM, poly (A).oligo (dT)
# [18] = 10 mM added cation + Mg^2+ 5 mM, poly (A).oligo (dT), dCMP/dTMP
# [19] = 4 mM KC2 H3 O2, template in drawing 5
# [20] = 20 mM KC2 H3 O2, template in drawing 5
# [21] = 40 mM KC2 H3 O2, template in drawing 5
# [22] = 80 mM KC2 H3 O2, template in drawing 5
# [23] = Table 1, template poly (C).oligo (dG), classes 1-3 not defined
# [24] = 4 mM added cation + Mg^2+ 5 mM, poly (A).oligo (dT)
smiles,measurement,setting,value
[Ca+2].[Cl-].[Cl-] [CaCl2],Complementary Nucleotide (pmoles dTMP),AMV DNA polymerase [1]; [5],704 pmol
same,Non-Complementary Nucleotide (pmoles dCMP),AMV DNA polymerase [1]; [5],0.70 pmol
same,Error Frequency,"AMV DNA polymerase [1]; 1 mM added cation + Mg^2+ 5 mM, poly (A).oligo (dT), dCMP/dTMP",1/1005
same,Complementary Nucleotide (pmoles dTMP),AMV DNA polymerase [1]; [6],129 pmol
same,Non-Complementary Nucleotide (pmoles dCMP),AMV DNA polymerase [1]; [6],0.19 pmol
same,Error Frequency,AMV DNA polymerase [1]; [7],1/681
same,Complementary Nucleotide (pmoles dTMP),AMV DNA polymerase [1]; [8],55 pmol
same,Non-Complementary Nucleotide (pmoles dCMP),AMV DNA polymerase [1]; [8],0.083 pmol
same,Error Frequency,"AMV DNA polymerase [1]; 5 mM added cation + Mg^2+ 5 mM, poly (A).oligo (dT), dCMP/dTMP",1/665
same,Class,AMV DNA polymerase [1]; [9],2
same,effect on error frequency (in words),AMV DNA polymerase [1]; poly (A).oligo (dT),did not alter the error frequency
same,Metal Concentration which yielded the largest observed change in error rate,AMV DNA polymerase [1]; template poly (A).oligo (dT),5 mM
same,ability to substitute for Mg^2+ as added divalent cation,AMV DNA polymerase [2],unable to substitute for Mg^2+
same,Carcinogen or Mutagen,[3],-
O=C(O)O [NaHCO3],Class,AMV DNA polymerase [1]; [10],2
same,Metal Concentration which yielded the largest observed change in error rate,AMV DNA polymerase [1]; template poly [d(A-T)],40 mM
same,fold induction at 1 h,[4]; poly [d(a-t)],0.96
same,Carcinogen or Mutagen,[3],-
CC(=O)O [Ba(C2 H3 O2)2],Class,AMV DNA polymerase [1]; [10],2
same,Metal Concentration which yielded the largest observed change in error rate,AMV DNA polymerase [1]; template poly [d(A-T)],10 mM
same,fold induction at 1 h,[4]; poly [d(a-t)],0.94
O=CO [NH4 COOH],Class,AMV DNA polymerase [1]; [10],2
same,Metal Concentration which yielded the largest observed change in error rate,AMV DNA polymerase [1]; template poly [d(A-T)],100 mM
same,fold induction at 1 h,[4]; poly [d(a-t)],0.83
"[Cl-].[Cl-].[Mg+2] [Mg^2+, magnesium chloride]",Complementary Nucleotide (pmoles dTMP),AMV DNA polymerase [1]; [11],320 pmol
same,Non-Complementary Nucleotide (pmoles dCMP),AMV DNA polymerase [1]; [11],0.56 pmol
same,Error Frequency,"AMV DNA polymerase [1]; Mg^2+ 2 mM alone, poly (A).oligo (dT), dCMP/dTMP",1/571
same,Complementary Nucleotide (pmoles dTMP),AMV DNA polymerase [1]; [12],600 pmol
same,Non-Complementary Nucleotide (pmoles dCMP),AMV DNA polymerase [1]; [12],1.16 pmol
same,Error Frequency,"AMV DNA polymerase [1]; Mg^2+ 5 mM alone, poly (A).oligo (dT), dCMP/dTMP",1/517
same,Complementary Nucleotide (pmoles dTMP),AMV DNA polymerase [1]; [13],520 pmol
same,Non-Complementary Nucleotide (pmoles dCMP),AMV DNA polymerase [1]; [13],1.00 pmol
same,Error Frequency,"AMV DNA polymerase [1]; Mg^2+ 8 mM alone, poly (A).oligo (dT), dCMP/dTMP",1/520
same,Complementary Nucleotide (pmoles dTMP),AMV DNA polymerase [1]; [14],240 pmol
same,Non-Complementary Nucleotide (pmoles dCMP),AMV DNA polymerase [1]; [14],0.90 pmol
same,Error Frequency,"AMV DNA polymerase [1]; Mg^2+ 15 mM alone, poly (A).oligo (dT), dCMP/dTMP",1/600
same,effect on error frequency (in words),AMV DNA polymerase [1]; poly (A).oligo (dT),invariant with respect to Mg^2+ concentration
same,Mg^2+ concentration at which the maximum rate of polymerization was attained,AMV DNA polymerase [2],5 mM
[Na+].[OH-] [NaOH],Class,AMV DNA polymerase [1]; [10],3
same,Metal Concentration which yielded the largest observed change in error rate,AMV DNA polymerase [1]; template poly [d(A-T)],10 mM
same,Carcinogen or Mutagen,[3],-
[Ba+2].[Cl-].[Cl-] [BaCl2],Complementary Nucleotide (pmoles dTMP),AMV DNA polymerase [1]; [6],240 pmol
same,Non-Complementary Nucleotide (pmoles dCMP),AMV DNA polymerase [1]; [6],0.42 pmol
same,Error Frequency,AMV DNA polymerase [1]; [7],1/578
same,Complementary Nucleotide (pmoles dTMP),AMV DNA polymerase [1]; [15],243 pmol
same,Non-Complementary Nucleotide (pmoles dCMP),AMV DNA polymerase [1]; [15],0.46 pmol
same,Error Frequency,AMV DNA polymerase [1]; [16],1/528
same,Complementary Nucleotide (pmoles dTMP),AMV DNA polymerase [1]; [17],317 pmol
same,Non-Complementary Nucleotide (pmoles dCMP),AMV DNA polymerase [1]; [17],0.61 pmol
same,Error Frequency,AMV DNA polymerase [1]; [18],1/520
same,Class,AMV DNA polymerase [1]; [9],2
same,effect on error frequency (in words),AMV DNA polymerase [1]; poly (A).oligo (dT),did not affect either the incorporation of the complementary or non-complementary nucleotides
same,Metal Concentration which yielded the largest observed change in error rate,AMV DNA polymerase [1]; template poly (A).oligo (dT),10 mM
same,ability to substitute for Mg^2+ as added divalent cation,AMV DNA polymerase [2],unable to substitute for Mg^2+
same,Carcinogen or Mutagen,[3],-
CC(=O)[O-].[K+] [KC2 H2 O2],Complementary Deoxynucleotide Incorporation,AMV DNA polymerase [1]; [19],484 pmol
same,Error Frequency,AMV DNA polymerase [1]; [19],1/733
same,Non-complementary Deoxynucleotide Incorporation,AMV DNA polymerase [1]; [19],0.66 pmol
same,Complementary Deoxynucleotide Incorporation,AMV DNA polymerase [1]; [20],423 pmol
same,Error Frequency,AMV DNA polymerase [1]; [20],1/755
same,Non-complementary Deoxynucleotide Incorporation,AMV DNA polymerase [1]; [20],0.56 pmol
same,Complementary Deoxynucleotide Incorporation,AMV DNA polymerase [1]; [21],378 pmol
same,Error Frequency,AMV DNA polymerase [1]; [21],1/741
same,Non-complementary Deoxynucleotide Incorporation,AMV DNA polymerase [1]; [21],0.51 pmol
same,Complementary Deoxynucleotide Incorporation,AMV DNA polymerase [1]; [22],379 pmol
same,Error Frequency,AMV DNA polymerase [1]; [22],1/743
same,Non-complementary Deoxynucleotide Incorporation,AMV DNA polymerase [1]; [22],0.51 pmol
same,Class,AMV DNA polymerase [1]; [23],3
same,Class,"AMV DNA polymerase [1]; Table 2, classes not defined",3
same,Metal Concentration which yielded the largest observed change in error rate,AMV DNA polymerase [1]; template poly (C).oligo (dG),100 mM
same,Carcinogen or Mutagen,[3],-
[Cl-].[Cl-].[Sr+2] [SrCl2],Complementary Nucleotide (pmoles dTMP),AMV DNA polymerase [1]; [24],798 pmol
same,Non-Complementary Nucleotide (pmoles dCMP),AMV DNA polymerase [1]; [24],0.86 pmol
same,Error Frequency,"AMV DNA polymerase [1]; 4 mM added cation + Mg^2+ 5 mM, poly (A).oligo (dT), dCMP/dTMP",1/927
same,Complementary Nucleotide (pmoles dTMP),AMV DNA polymerase [1]; [15],936 pmol
same,Non-Complementary Nucleotide (pmoles dCMP),AMV DNA polymerase [1]; [15],0.96 pmol
same,Error Frequency,AMV DNA polymerase [1]; [16],1/975
same,Complementary Nucleotide (pmoles dTMP),AMV DNA polymerase [1]; [17],845 pmol
same,Non-Complementary Nucleotide (pmoles dCMP),AMV DNA polymerase [1]; [17],0.86 pmol
same,Error Frequency,AMV DNA polymerase [1]; [18],1/982
same,Class,AMV DNA polymerase [1]; [9],3
same,effect on error frequency (in words),AMV DNA polymerase [1]; poly (A).oligo (dT),did not affect either the incorporation of the complementary or non-complementary nucleotides
same,Metal Concentration which yielded the largest observed change in error rate,AMV DNA polymerase [1]; template poly (A).oligo (dT),10 mM
same,Carcinogen or Mutagen,[3],-
O=S(=O)([O-])[O-].O=S(=O)([O-])[O-].O=S(=O)([O-])[O-].[Al+3].[Al+3] [(Al)2 (SO4)3],Class,AMV DNA polymerase [1]; [10],2
same,Metal Concentration which yielded the largest observed change in error rate,AMV DNA polymerase [1]; template poly [d(A-T)],10 mM
same,Carcinogen or Mutagen,[3],-
CC(=O)O [NaC2 H3 O2],Class,AMV DNA polymerase [1]; [23],2
same,Metal Concentration which yielded the largest observed change in error rate,AMV DNA polymerase [1]; template poly (C).oligo (dG),100 mM
same,fold induction at 1 h,[4]; poly(c).oligo(dg),1
same,Carcinogen or Mutagen,[3],-
"[Cl-].[K+] [KCl, potassium chloride]",effect on the fidelity of DNA synthesis (in words),"AMV DNA polymerase [1]; 1 mM to 300 mM, poly (A).oligo (dT)",did not alter the fidelity of DNA synthesis
same,Class,AMV DNA polymerase [1]; [10],2
same,Metal Concentration which yielded the largest observed change in error rate,AMV DNA polymerase [1]; template poly [d(A-T)],150 mM
same,Carcinogen or Mutagen,[3],-
[Cl-].[Cl-].[Zn+2] [ZnCl2],Class,AMV DNA polymerase [1]; [10],2
same,Metal Concentration which yielded the largest observed change in error rate,AMV DNA polymerase [1]; template poly [d(A-T)],0.4 mM
same,Carcinogen or Mutagen,[3],±
